Results on one molecule are retold here after article PMC12817916, “A small-molecule HSP90 inhibitor, NVP-HSP990, alleviates rotavirus infection” (Journal of Virology, 2025).

For series [1], the system named is MA104 cells. In words: Cytotoxicity assay (CCK-8). The class given is cell-based, Rhesus monkey. As to conditions: MA104 cells, 24 h, CCK-8; read-out: CC50. As for the experimental part: (§1) To evaluate the cytotoxicity of different HSP90 inhibitors in vitro, 10,000 MA104 cells, 30,000 Caco-2 cells, and 80,000 HT-29 cells in 100 µL complete DMEM medium were seeded in 96-well plates and cultured at 37°C and 5% CO2 for 24 h to reach about 100% confluence, and a cell-free control was also set. After removing the initial medium, 100 µL of complete DMEM medium containing the indicated concentrations of drugs was added to each well, and the plates were incubated at 37°C and 5% CO2. Twenty-four hours later, the drug-containing medium was replaced with 100 µL fresh complete DMEM medium plus 10 µL 5 mM CCK-8 reagent (Beyotime, China), and OD450 absorbance of each well was detected 3 h later using a microplate reader (Gene Company Limited, China). Relative cell viability rate = OD450 (drug-treated cells − cell-free control) / OD450 (0 µM drug-treated cells − cell-free control).
(§2) The 50% cytotoxic concentration (CC50) values were determined by nonlinear regression (curve fit) analysis in GraphPad Prism 9.0 (GraphPad Software). Dose-response data (drug concentrations as X-axis and normalized cell viability percentages as Y-axis) were fitted to a Dose-response Inhibition model ("[Inhibitor] vs. normalized response-Variable slope"). The curve was constrained to a bottom limit of 0% viability. The CC50 value was automatically calculated as the X-intercept at Y=50%. Model adequacy was validated using goodness-of-fit metrics (R²≥0.95), 95% confidence intervals, and residual distribution analysis. Final CC50 values were derived from three independent biological replicates and reported as mean ± SEM.

The subject of series [2] is Caco-2 cells. In words: Cytotoxicity assay (CCK-8). In kind it is cell-based, Human. Particulars: Caco-2 cells, 24 h, CCK-8; read-out: CC50. On the procedure: as §1, §2
In series [3] the test system is HT-29 cells. In words: Cytotoxicity assay (CCK-8). As to conditions: HT-29 cells, 24 h, CCK-8; read-out: CC50. The class given is cell-based, Human. On the procedure: as §1, §2
Series [4] concerns RV VP2, VP6, NSP4, NSP5. In words: RV gene transcription and antigen expression in Caco-2 cells (qPCR, WB, IFA). The class given is cell-based, Rotavirus. Particulars: RV-infected Caco-2 cells, 18 h. On the procedure:
Caco-2 cells growing on coverslips were mock-infected with PBS or infected with RV Wa or SA11 strains (MOI = 1), then the cells were cultivated with DMEM containing 100 nM NVP-HSP990 or an equal volume of DMSO as a control for another 18 h after infection. The cells were then washed with PBS, fixed in 4% paraformaldehyde for 20 min, followed by permeabilization in 0.5% Triton X-100 for 10 min and blocking with 5% BSA (Beyotime, China) for 1 h at room temperature. The cells were then incubated with rabbit anti-ZO-1 monoclonal antibody (CST, USA) (1:100) or rabbit anti-RV VP6 polyclonal antibodies (CUSABIO, China) (1:50) for 2 h at room temperature, washed twice with PBS, and incubated with Cy3-conjugated goat anti-rabbit antibodies (Beyotime, China) (1:500) for 1 h at room temperature. In some experiments, the cells were also stained with FITC-conjugated goat anti-RV antibodies (Virostat, USA) (1:100) for 1 h at room temperature and followed by 5 µg/mL 2-(4-amidinophenyl)-6-indolecarbamidine dihydrochloride (DAPI) (Sigma-Aldrich, USA) staining for 10 min. The triple-stained cells were washed twice with PBS and mounted in Prolong Gold Antifade Reagent (CST, USA). Microscopic images were acquired with an EVOS M5000 system (Thermo Fisher Scientific, USA) using the built-in Celleste software (v.6.0). […] Minimal post-processing (image cropping and annotations) was applied through Adobe Illustrator 2019 (Adobe Systems, USA) to ensure readability. […]
MA104, Caco-2, and HT-29 cells were mock-infected with PBS, infected with RV Wa or SA11 strains (MOI = 3), or treated with 1 µM C16-PAF (C16) for 1 h. […] After protein quantification with a BCA kit (Beyotime, China), the protein samples were mixed with 25 µL 5× SDS loading buffer (Beyotime, China), boiled at 100°C for 5 min, chilled on ice, vortexed for seconds, and centrifuged at 12,000 × g for 3 min at room temperature. […]
(A) Caco-2 cells were infected with RV (Wa or SA11 strains) at varying MOIs (0.001–10), followed by treatment with 100 nM NVP-HSP990 or an equal volume of DMSO (as a control) for 24 h. Viral replication was assessed using PFA. […]

Structures are written as SMILES. Some results are limits rather than exact numbers.

One may read the CC50 as the concentration that lowers cell viability or growth by half. On to `COc1cccc(-c2cc(F)ccc2[C@H]2Cc3nc(N)nc(C)c3C(=O)N2)n1` [NVP-HSP990], for which the CC50 in series [1], in series [2] and in series [3] was above 100 µM in each case. Also, in series [4] (100 nM), the “RV VP6 expression (IFA)” value is listed as “potent inhibition”. Further, the “RNA synthesis of RV proteins VP2, VP6, NSP4, and NSP5 (qPCR)” value in series [4] (MOI = 1, 100 nM) is “significant reduction”. The “RV structural protein VP6 (WB)” value in series [4] (MOI = 1, 100 nM) is “remarkably reduced”.
